In patent US20140343001A1, “INDOLE DERIVATIVES INHIBITORS OF ENZYME LACTATE DEHYDROGENASE (LDH)” (Universitá di Pisa, priority 2011, published 2014):

Assays:
H1975 = test: Inhibition of tumor cell growth method (b), CellTiter-Glo; type: cell-based; conditions: Homo sapiens, NCI-H1975, H1975, 72 h
Text: (§1) CellTiter-Glo® Luminescent Cell Viability Assay (Promega) is a homogeneous method of determining the number of viable cells in culture based on quantitation of the present ATP, which indicates the presence of metabolically active cells. The homogeneous assay procedure involves addition of a single reagent (CellTiter-Glo® Reagent) directly to the cells, which leads to cell lysis and generation of a luminescent signal proportional to the amount of the ATP and the number of cells present in culture. The assay relies on the properties of a proprietary thermostable luciferase (Ultra-Glo® recombinant luciferase), which generates a luminescent signal.
(§2) After 72 h, a volume of CellTiter-Glo® Reagent equal to the volume of cell culture medium was added. The content was mixed for 2 min to induce cell lysis. The luminescence was recorded after further 10 min at RT in order to obtain a stable luminescent signal.
(§3) The IC50 was calculated using GraphPad Software.

A549 cells = test: as above; type: cell-based; conditions: Homo sapiens, A549, 72 h
Text: as §1, §2, §3

HeLa cells = test: Determination of cellular production of lactate (GC/MS); type: cell-based; conditions: 8 hours, concentrations from 50 to 200 μM, comparable or superior to 2-DeoxGlu at 10 mM
hLDH5 (LDH-A) = molecular target: T1, hLDH5 (LDH-A) (Homo sapiens, UniProt P00338); test: Enzyme inhibition of human lactate dehydrogenase isoform 5; type: biochemical; conditions: ranges of values, pH 7.4; for Ki: 37° C., read-out: inhibitory activity against hLDH5 (Ki); for IC50: room temperature, read-out: inhibitory activity against hLDH5 (IC50)
T1 construct: purchased LEEBIO (USA)
Experimental: The compounds described in the examples were evaluated in enzymatic assays to assess its inhibitory properties against two human isoforms of lactate dehydrogenase, hLDH5 containing solely the subunit LDH-A (LEEBIO—USA), and the hLDH1 containing only the LDH subunits-B (Sigma Aldrich, USA), in order to verify the selectivity of these compounds.
(for Ki measurements). Such assays were conducted in cells containing 200 μL of a solution comprising the reagents dissolved in phosphate buffer (KH2PO4 and K2HPO4) at pH 7.4.
IC50 values were calculated as described below. […] Seven different concentrations (in duplicate for each concentration) of compound were used to generate a concentration-response curve. […] Compound solutions were dispensed in 96-well plates (8 μL), then substrate and cofactor dissolved in buffer (152 μl) and enzyme solution (40 μl) were finally added. Dilution of the enzyme stock solution was made to allow a 10% consumption of the cofactor after 15 min. The eventual background fluorescence of the tested compounds or quenching of the NADH fluorescence by the tested compounds was subtracted. In addition to the compound test wells, each plate contained maximum and minimum controls. Assay plates were incubated at room temperature for 15 min and the final measurements were performed using Victor X3 Microplates reader (PerkinElmer®) at a fluorescence emission wavelength of 460 nm (excitation at 340 nm). IC50 were generated using the curve-fitting tool of GraphPad Prism].
The resulting data of enzymatic kinetic (the constants of Michaelis-Menten) were determined by analysis of non-linear regression.

IC50 (H1975) [µM] | IC50 (A549 cells) [µM] | Ki (hLDH5 (LDH-A)) [µM] | IC50 (hLDH5 (LDH-A)) [µM] | Structure (SMILES) | reduction of cellular production of lactate (HeLa cells)
≤ 31 | ≤ 31 | 1 to 10 | – | CCOC(=O)c1cc2c(C(F)(F)F)cc(-c3ccc(Cl)cc3Cl)cc2n1O [Example 9, ethyl 6-(2,4-dichloropheyl)-1-hydroxy-4-(trifluoromethyl)-1H-indole-2-carboxylate] | reduce effectively cellular production of lactate
≤ 31 | ≤ 31 | 0.5 to 5 | – | CC(C)OC(=O)c1cc2c(C(F)(F)F)cc(-c3ccc(Cl)cc3Cl)cc2n1O [Example 32, isopropyl 6-(2,4-dichlorophenyl)-1-hydroxy-4-(trifluoromethyl)-1H-indole-2-carboxylate] | reduce effectively cellular production of lactate
– | – | – | 0.01 to 1 | CCCCOC(=O)c1cc2c(C(F)(F)F)cc(-c3ccc(Cl)cc3Cl)cc2n1O [Example 33, butyl 6-(2,4-dichlorophenyl)-1-hydroxy-4-(trifluoromethyl)-1H-indole-2-carboxylate] | reduce effectively cellular production of lactate
≤ 31 | ≤ 31 | 5 to 25 | – | COC(=O)c1cc2c(C(F)(F)F)cc(-c3cc(Cl)ccc3Cl)cc2n1O [Example 38, methyl 6-(2,5-dichlorophenyl)-1-hydroxy-4-(trifluoromethyl)-1H-indole-2-carboxylate] | –
≤ 31 | ≤ 31 | 0.5 to 5 | – | O=C(OCc1ccccc1)c1cc2c(C(F)(F)F)cc(-c3ccccc3)cc2n1O [Example 48, benzyl 1-hydroxy-6-phenyl-4-(trifluoromethyl)-1H-indole-2-carboxylate] | –
– | – | – | > 100 | O=C(OC1CCN(Cc2ccccc2)CC1)c1cc2c(C(F)(F)F)cc(-c3ccc(Cl)cc3Cl)cc2n1O [Example 59, 1-benzylpiperidin-4-yl 6-(2,4-dichlorophenyl)-1-hydroxy-4-(trifluoromethyl)-1H-indole-2-carboxylate] | –
– | – | – | 0.01 to 1 | COc1ccc(COC(=O)c2cc3c(C(F)(F)F)cc(-c4ccc(Cl)cc4Cl)cc3n2O)cc1 [Example 60, 4-methoxybenzyl 6-(2,4-dichlorophenyl)-1-hydroxy-4-(trifluoromethyl)-1H-indole-2-carboxylate] | –
– | – | – | 0.01 to 1 | O=C(OCc1ccc([N+](=O)[O-])cc1)c1cc2c(C(F)(F)F)cc(-c3ccc(Cl)cc3Cl)cc2n1O [Example 61, 4-nitrobenzyl 6-(2,4-dichlorophenyl)-1-hydroxy-4-(trifluoromethyl)-1H-indole-2-carboxylate] | –
– | – | – | 0.01 to 1 | O=C(OCc1ccc(F)cc1)c1cc2c(C(F)(F)F)cc(-c3ccc(Cl)cc3Cl)cc2n1O [Example 62, 4-fluorobenzyl 6-(2,4-dichlorophenyl)-1-hydroxy-4-(trifluoromethyl)-1H-indole-2-carboxylate] | –
– | – | – | 0.01 to 1 | O=C(OCc1ccc(Cl)cc1)c1cc2c(C(F)(F)F)cc(-c3ccc(Cl)cc3Cl)cc2n1O [Example 63, 4-chlorobenzyl 6-(2,4-dichlorophenyl)-1-hydroxy-4-(trifluoromethyl)-1H-indole-2-carboxylate] | –
– | – | – | 0.01 to 1 | O=C(OCc1ccc(C(F)(F)F)cc1)c1cc2c(C(F)(F)F)cc(-c3ccc(Cl)cc3Cl)cc2n1O [Example 64, 4-(trifluoromethyl)benzyl 6-(2,4-dichlorophenyl)-1-hydroxy-4-(trifluoromethyl)-1H-indole-2-carboxylate] | –

Continued, molecule first:

Structure (SMILES) | IC50 (H1975) [µM] | IC50 (A549 cells) [µM] | Ki (hLDH5 (LDH-A)) [µM] | IC50 (hLDH5 (LDH-A)) [µM] | reduction of cellular production of lactate (HeLa cells)
COC(=O)c1cc2c(C(F)(F)F)cc(-c3cccc(OC(F)(F)F)c3)cc2n1O [Example 19, methyl 1-hydroxy-4-(trifluoromethyl)-6-(3-(trifluoromethoxy)phenyl)-1H-indole-2-carboxylate] | ≤ 31 | ≤ 31 | 1 to 10 | – | –
CCCCOC(=O)c1cc2c(C(F)(F)F)cc(-c3ccccc3)cc2n1O [Example 22, butyl 1-hydroxy-6-phenyl-4-(trifluoromethyl)-1H-indole-2-carboxylate] | ≤ 31 | ≤ 31 | 0.5 to 5 | – | reduce effectively cellular production of lactate
CC(C)OC(=O)c1cc2c(C(F)(F)F)cc(-c3ccccc3)cc2n1O [Example 23, isopropyl 1-hydroxy-6-phenyl-4-(trifluoromethyl)-1H-indole-2-carboxylate] | ≤ 31 | ≤ 31 | 1 to 10 | – | reduce effectively cellular production of lactate
O=C(O)c1cc2c(C(F)(F)F)cc(-c3cccc(OC(F)(F)F)c3)cc2n1O [Example 25, 1-hydroxy-4-(trifluoromethyl)-6-(3-(trifluoromethoxy)phenyl)-1H-indole-2-carboxylic acid] | – | ≤ 31 | 1 to 10 | – | –
CC(C)OC(=O)c1cc2c(C(F)(F)F)cc(-c3ccccc3)cc2n1O[C@@H]1O[C@H](CO)[C@@H](O)[C@H](O)[C@H]1O [Example 31, isopropyl 1-(β-D-glucopyranosyl)oxy-6-phenyl-4-(trifluoromethyl)-1H-indole-2-carboxylate] | – | – | – | 50 to 500 | reduce effectively cellular production of lactate
COC(=O)c1cc2c(C(F)(F)F)cc(-c3ccccc3OC(F)(F)F)cc2n1O [Example 34, methyl 1-hydroxy-6-(2-(trifluoromethoxy)phenyl)-4-(trifluoromethyl)-1H-indole-2-carboxylate] | ≤ 31 | ≤ 31 | 5 to 25 | – | –
O=C(O)c1cc2c(C(F)(F)F)cc(-c3ccccc3OC(F)(F)F)cc2n1O [Example 35, 1-hydroxy-6-(2-(trifluoromethoxy)phenyl)-4-(trifluoromethyl)-1H-indole-2-carboxylic acid] | ≤ 31 | ≤ 31 | 5 to 25 | – | –
COC(=O)c1cc2c(C(F)(F)F)cc(-c3cccc(Cl)c3Cl)cc2n1O [Example 36, methyl 6-(2,3-dichlorophenyl)-1-hydroxy-4-(trifluoromethyl)-1H-indole-2-carboxylate] | ≤ 31 | ≤ 31 | 1 to 10 | – | –
COC(=O)c1cc2c(C(F)(F)F)cc(-c3ccccc3)cc2n1O[C@@H]1O[C@H](CO)[C@H](O)[C@@H](O)[C@H]1O [Example 40, methyl 1-(β-d-gulopyranosyl)oxy-6-phenyl-4-(trifluoromethyl)-1H-indole-2-carboxylate] | – | – | – | – | reduce effectively cellular production of lactate
COC(=O)c1cc2c(C(F)(F)F)cc(-c3ccccc3)cc2n1O[C@H]1O[C@H](CO)[C@@H](O)[C@H](O)[C@@H]1O [Example 41, methyl 1-(α-d-mannopyranosyl)oxy-6-phenyl-4-(trifluoromethyl)-1H-indole-2-carboxylate] | – | – | – | – | reduce effectively cellular production of lactate
COC(=O)c1cc2c(C(F)(F)F)cc(-c3cc(Cl)cc(Cl)c3)cc2n1O [Example 42, methyl 6-(3,5-dichlorophenyl)-1-hydroxy-4-(trifluoromethyl)-1H-indole-2-carboxylate] | ≤ 31 | ≤ 31 | 1 to 10 | – | –
O=C(O)c1cc2c(C(F)(F)F)cc(-c3cc(Cl)cc(Cl)c3)cc2n1O [Example 43, 6-(3,5-dichlorophenyl)-1-hydroxy-4-(trifluoromethyl)-1H-indole-2-carboxylic acid] | – | ≤ 31 | 1 to 10 | – | –
COC(=O)c1cc2c(F)cc(-c3ccc(Cl)cc3Cl)cc2n1O [Example 53, methyl 6-(2,4-dichlorophenyl)-4-fluoro-1-hydroxy-1H-indole-2-carboxylate] | ≤ 31 | ≤ 31 | 5 to 25 | – | –
